These results are taken from patent US20250221979A1, “NOVEL HETEROCYCLIC COMPOUND” (SHOUYAO HOLDINGS (BEIJING) CO., LTD., priority 2022, published 2025).

The structures appear in SMILES notation.

In series [1] the test system is HCT116 MTAP−/− cells. The series can be described thus: Inhibition of proliferation of HCT116 MTAP-/- cells (Cell-Titer Glo, 7 days). It is filed as cell-based. The conditions noted are these: Homo sapiens, HCT-116, 168 h (7 days) incubation, read-out: HCT116 MTAP−/− antiproliferative activity IC50. Here is the method:
The MTAP deficient human colorectal cancer cell line HCT116 MTAP−/− was constructed using CRJSPR Cas9 technology and cultured in DMEM medium supplemented with 10% fetal bovine serum (FBS, purchased from Gibco) and 1% penicillin/streptomycin (P/S, purchased from Thermo Fisher Scientific) at 37° C. with 5% CO2. HCT116 MTAP−/− cells were plated in 96 well plates (#3917, purchased from CORNING) at a concentration of 200 cells/195 μL/well. After 24 h, the compounds were diluted in a 3-fold gradient starting at 10 mM with 100% DMSO (for a total of 10 concentrations), then 4 μL of each concentration was added to 96 μL of serum-free DMEM medium for dilution. 5 μL of diluted compound at each concentration was added to the plated cell suspension and the compound was incubated with the cells for 168 h (7 days) in a cell culture incubator. The medium was then removed and 25 μL of Cell-Titer Glo® (G7570, purchased from Promega) reagent was added. Chemiluminescence values were read on a BMG and data were processed using GraphPad Prism software to calculate IC50 values for inhibition of cell proliferation by the compounds.

Series [2] deals with human MAT2A enzyme (Homo sapiens (Human), UniProt P31153). In words: In vitro enzymatic inhibition activity assay on MAT2A (PiColorLock phosphate detection). It counts as biochemical. The conditions noted are these: purified human MAT2A 10 nM, ATP 50 μM, L-methionine 100 μM, 6 h at 23° C.; read-out: MAT2A inhibitory activity IC50. Summed up:
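Purified human MAT2A (10 nM) turned L-methionine (100 μM) and ATP (50 μM) into SAM in Tris-HCl pH 7.5 buffer with MgCl2, KCl and DTT for 6 h at 23 °C. Released phosphate was read colorimetrically at 630 nm. IC50 was fitted from an 8-point, 10-fold dilution series.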

A short description of series [3]: In vivo pharmacokinetic study in CD-1 mice. To be noted: male, mouse, single oral gavage dose of 10 mg/kg, plasma. Here is the method:
In vivo pharmacokinetic study in CD-1 mice
Twenty-four healthy adult male mice from Beijing Vital River Laboratory Animal Technology Co., Ltd. were used in the study.
CD-1 mice were administered with a single oral gavage dose of 10 mg/kg in a volume of 10 mL/kg at a concentration of 1 mg/mL.
The test article in this project is generally suspended in 0.5% hydroxypropylmethyl cellulose, 0.1% Tween 80 (W/V/V) aqueous solution at the concentration of 1 mg/mL.
Animals dosed by gavage were fasted overnight before the experiment from 16 h before dosing to 4 h after dosing. Blood was collected at 0.25, 0.5, 1, 2, 4, 6, 8, and 24 h after administration successively. The animals were lightly anesthetized with isoflurane. About 0.2 mL of whole blood was collected from the orbital venous plexus using a glass blood collection tube and placed in a sodium heparin anticoagulant tube. The sample was centrifuged at 5200 rpm for 5 min at 4° C. The plasma was transferred to a centrifuge tube and stored at −80° C. until analysis.
Analysis of plasma samples Test compounds and internal standards (warfarin or propranolol) were extracted from mouse plasma using an acetonitrile protein precipitation method and the extracts were analyzed by LC/MS/MS. The measured plasma concentration-time data of individual animals were analyzed using the non-compartmental model of WinNonlin (version 5.2.1, Pharsight) software to obtain the corresponding pharmacokinetic parameters: maximum (peak) plasma drug concentration Cmax; Time to peak Tmax; Half-life T1/2 and area under the plasma concentration-time curve extrapolated to infinite time AUC0-inf.

human MAT2A enzyme, sequence (P31153 whole entry): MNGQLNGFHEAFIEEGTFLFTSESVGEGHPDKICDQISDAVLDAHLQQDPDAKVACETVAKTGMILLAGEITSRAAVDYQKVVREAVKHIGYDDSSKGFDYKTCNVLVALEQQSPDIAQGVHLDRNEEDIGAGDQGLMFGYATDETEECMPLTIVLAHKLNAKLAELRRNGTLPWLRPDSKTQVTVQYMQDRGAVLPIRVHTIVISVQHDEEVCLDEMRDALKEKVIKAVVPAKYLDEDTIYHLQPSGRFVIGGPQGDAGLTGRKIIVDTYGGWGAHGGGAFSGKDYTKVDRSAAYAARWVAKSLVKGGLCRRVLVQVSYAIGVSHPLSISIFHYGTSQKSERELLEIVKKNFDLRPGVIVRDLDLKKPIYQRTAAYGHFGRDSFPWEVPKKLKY

As to `COC(=O)c1c(N)c2ccc(I)cc2n(-c2cccc3cnccc23)c1=O` [Example 199, methyl 4-amino-7-iodo-1-(isoquinolin-5-yl)-2-oxo-1,2-dihydroquinoline-3-carboxylate], in series [1], the IC50 came to 48.5 nM. In series [2], the IC50 stood at 3.57 nM. Moreover, in series [3], the exposure (AUC) is 24600 ng·h/mL, the peak level (Cmax) was 4270 ng/mL, the Tmax was 2.5 h and the half-life is 2.98 h.

Turning to `COC(=O)c1c(N)c2ccc(Br)cc2n(-c2ccc(N)cc2)c1=O` [Example 147, methyl 4-amino-1-(4-aminophenyl)-7-bromo-2-oxo-1,2-dihydroquinoline-3-carboxylate], in series [1], the IC50 was determined as 81.5 nM. Moreover, the IC50 in series [2] stood at 0.78 nM. In series [3], the AUC is 24100 ng·h/mL, the peak concentration (Cmax) was 2320 ng/mL, the Tmax amounted to 1.67 h and the half-life was 8.44 h.

With `COC(=O)c1c(N)c2ccc(Br)nc2n(-c2ccc3ccncc3c2)c1=O` [Example 244, methyl 4-amino-7-bromo-1-(isoquinolin-7-yl)-2-oxo-1,2-dihydro-1,8-naphthyridine-3-carboxylate], the IC50 in series [1] was found to be 46.4 nM; in series [2], 0.86 nM.

In the case of `COC(=O)c1c(N)c2ccc(C(F)(F)F)cc2n(-c2ccc(C(C)O)cc2)c1=O` (stereo not shown) [Example 122, methyl 4-amino-1-(4-(1-hydroxyethyl)phenyl)-2-oxo-7-(trifluoromethyl)-1,2-dihydroquinoline-3-carboxylate], the results for the IC50 in series [1] and in series [2] were 50 nM and 2.17 nM, respectively.

As for `COC(=O)c1c(N)c2ccc(C(F)(F)F)cc2n(-c2ccc(CO)cc2)c1=O` [Example 86, methyl 4-amino-2-oxo-1-(4-(hydroxymethyl)phenyl)-7-(trifluoromethyl)-1,2-dihydroquinoline-3-carboxylate], the IC50 was found to be 85.2 nM in series [1] and 2.37 nM in series [2].

With `COC(=O)c1c(N)c2ccc(OC(F)(F)F)cc2n(-c2ccc([C@@H](C)O)cc2)c1=O` [Example 378, methyl 4-amino-1-(4-((1R)-1-hydroxyethyl)phenyl)-2-oxo-7-(trifluoromethoxy)-1,2-dihydroquinoline-3-carboxylate], the IC50 in series [1] is 1.5 nM; in series [2], 1.2 nM.

Consider `COC(=O)c1c(N)c2ccc(C(F)(F)F)cc2n(-c2ccc(C(C)O)nc2)c1=O` (stereo not shown) [Example 175, methyl 4-amino-1-(6-(1-hydroxyethyl)pyridin-3-yl)-2-oxo-7-(trifluoromethyl)-1,2-dihydroquinoline-3-carboxylate], for which the IC50 in series [1] is 53.5 nM; in series [2], 6.25 nM.

As to `COC(=O)c1c(N)c2ccc(C(F)(F)F)nc2n(-c2cccc3cnccc23)c1=O` [Example 174, methyl 4-amino-1-(isoquinolin-5-yl)-2-oxo-7-(trifluoromethyl)-1,2-dihydro-1,8-naphthyridine-3-carboxylate], the IC50 in series [1] was determined as 79 nM. For the same compound, in series [2], the IC50 worked out at 5.12 nM. In series [3], the AUC was 24500 ng·h/mL, the Cmax is 9540 ng/mL, the Tmax was determined as 0.5 h and the half-life was 3.08 h.

For `COC(=O)c1c(N)c2ccc(C(F)(F)F)nc2n(-c2ccc(OC)nc2)c1=O` [Example 208, methyl 4-amino-1-(6-methoxypyridin-3-yl)-2-oxo-7-(trifluoromethyl)-1,2-dihydro-1,8-naphthyridine-3-carboxylate], the figures for the IC50 in series [1] and in series [2] were 70.9 nM and 4.09 nM, respectively.

In the case of `COC(=O)c1c(N)c2ccc(Br)nc2n(-c2ccc(C(C)O)cc2)c1=O` (stereo not shown) [Example 266, methyl 4-amino-1-(4-(1-hydroxyethyl)phenyl)-7-bromo-2-oxo-1,2-dihydro-1,8-naphthyridine-3-carboxylate], the IC50 was found to be 32.7 nM in series [1] and 2.37 nM in series [2].

Take `COC(=O)c1c(N)c2ccc(Br)nc2n(-c2ccc(Cl)cc2)c1=O` [Example 265, methyl 4-amino-7-bromo-1-(4-chlorophenyl)-2-oxo-1,2-dihydro-1,8-naphthyridine-3-carboxylate]: the IC50 turned out to be 47.3 nM in series [1] and 0.94 nM in series [2].

Consider `COC(=O)c1c(N)c2ccc(Br)cc2n(-c2ccc(C(C)O)cc2)c1=O` (stereo not shown) [Example 200, methyl 4-amino-7-bromo-1-(4-(1-hydroxyethyl)phenyl)-2-oxo-1,2-dihydro quinoline-3-carboxylate], for which the IC50 in series [1] turned out to be 23.4 nM; in series [2], 1.63 nM.

With `COC(=O)c1c(N)c2ccc(I)cc2n(-c2ccc(N)cc2)c1=O` [Example 252, methyl 4-amino-1-(4-aminophenyl)-7-iodo-2-oxo-1,2-dihydro quinoline-3-carboxylate], the IC50 in series [1] was determined as 14.2 nM; in series [2], 0.14 nM.

For the compound `COC(=O)c1c(N)c2ccc(C(F)(F)F)cc2n(-c2ccc([C@@H](C)O)cc2)c1=O` [Example 272, methyl 4-amino-1-(4-(1-(R)-hydroxyethyl)phenyl)-2-oxo-7-(trifluoromethyl)-1,2-dihydroquinoline-3-carboxylate], the IC50 in series [1] was 16.6 nM; in series [2], 0.78 nM.

Regarding `COC(=O)c1c(N)c2ccc(C(F)(F)F)nc2n(-c2ccc(Cl)cc2)c1=O` [Example 173, methyl 4-amino-1-(4-chlorophenyl)-2-oxo-7-(trifluoromethyl)-1,2-dihydro-1,8-naphthyridine-3-carboxylate], the IC50 was 30.9 nM in series [1] and 1.18 nM in series [2].

On to `COC(=O)c1c(N)c2ccc(Br)cc2n(-c2ccc3c(c2)OCO3)c1=O` [Example 92, methyl 4-amino-1-(benzo[d](1,3)dioxol-5-yl)-7-bromo-2-oxo-1,2-dihydroquinoline-3-carboxylate], for which the IC50 in series [1] was determined as 87.2 nM; in series [2], 0.83 nM.

As to `COC(=O)c1c(N)c2ccc(Br)cc2n(-c2ccc([C@@H](C)O)cc2)c1=O` [Example 340, methyl 4-amino-7-bromo-1-(4-(1-(R)-hydroxyethyl)phenyl)-2-oxo-1,2-dihydroquinoline-3-carboxylate], the IC50 in series [1] was 2.1 nM; in series [2], 1.44 nM.

One may read the AUC as concentration integrated over time. A high value points to more exposure. A word on the Cmax: it is the peak of the concentration-time curve. A word on the Tmax: it is the time at which the peak concentration occurs. As a reminder, the half-life is how long it takes for the measured level to halve.
